Patent EP0373195B1, “COMPOSITION FOR INCREASING MELANIN CONTENT OF MELANOCYTES IN-VIVO AND IN-VITRO AND METHODS FOR THE IN-VITRO USE THEREOF” (TRUSTEES OF BOSTON UNIVERSITY, priority 1988, dated 1989)

Legend:
S91 melanoma cells [1] = experiment: Melanin content of S91 melanoma cells in culture; format: cell-based, murine; settings: DMEM with 2% FBS, 37°C, 7 days
Procedure: To determine melanin content, the remaining suspension was centrifuged for 5 minutes in a microcentrifuge; the supernatant discarded; and the resulting cell pellet dissolved in 0.1 ml of a 1 M NaOH which was subsequently diluted with 0.4 ml of water. Melanin concentration was calculated by determination of optical density at 475 nanometers; and values extrapolated by comparison with a standard curve of determinations for synthetic melanin, a measurement of melanogenesis which correlates extremely well with ¹⁴C-DOPA incorporation and with tyrosinase activity [Friedmann and Gilchrest, J. Cell. Physiol. 133:88-94 (1987)]. Melanin values were expressed as total melanin per culture; or as melanin content per cell; or as percent of untreated controls.
This experimental series was performed to evaluate the effect of a DAG on melanocytes derived from animal sources, rather than humans. In this experimental series, murine S91 melanoma cells were grown and maintained in culture using conventional techniques [Friedmann and Gilchrest, J. Cell. Physiol. 133:88-94 (1987)]. The grown S91 melanoma cells were then combined with 100 »M of the preferred DAG, 1-oleoyl-2-acetyl-glycerol; or with 100 »M of 3-isobutyl-1-methylxanthine (IBMX). Each chemical agent was combined with the S91 melanoma cells in Dulbecco's […] Eagle's Medium containing 2% FBS at 37°C for 7 days. […]

human melanocytes [2] = experiment: Dendricity (morphology) of cultured human melanocytes; format: cell-based
Procedure: In certain instances, phase contrast micrographs were taken using an inverted microscope after the cultures were washed once with phosphate buffered saline.
(§1) A first experimental series was performed which utilized human melanocytes combined with the preferred DAG, 1-oleoyl-2-acetyl-glycerol, selected for its efficiency of intercalating into melanocyte membranes. Neonatal foreskins obtained within two hours of elective circumcision were the source of human melanocytes. The epidermis was separated from the dermis after overnight incubation in 0.25% trypsin. Melanocytes were established in primary culture according to the procedure of Gilchrest et al. [J. Invest. Dermatol. 83:370-376 (1984)]. The preferred DAG was combined with human melanocytes in complete melanocyte medium and incubated together for a period of 6 days at 37°C.
(§2) A second experimental series was conducted in which the cultured human melanocytes were first pretreated with tetradecanoyl phorbol-13-acetate (hereinafter "TPA") at a concentration of 100 nM. Initially, the human melanocytes were obtained and grown as previously described. Subsequently, the cultured human melanocytes were combined with 100 nM of TPA in melanocyte medium and incubated at 37°C for 24 hours. The DAG was then added and the culture incubated again for 6 days. The melanin content of the cells was then evaluated in accordance with the procedure as previously described herein.

S91 melanoma cells [3] = experiment: Proliferation of S91 melanoma cells in culture; format: cell-based, murine; settings: DMEM with 2% FBS, 37°C, 7 days
Procedure: (§3) Melanocytes were seeded at 2 x 10⁴ cells per 35 mm dish and combined with KPGM supplemented with 2% FBS and 100 ug/ml of BHE, now designated as complete melanocyte medium. After 24 hours incubation at 37 C, the grown melanocyte cultures, in duplicate or triplicate, received one of the following: free complete melanocyte medium; or supplemented whole KDCM. Each melanocyte culture was then incubated for 6-7 days at 37 C. Subsequently, each melanocyte culture was harvested and the cell number per dish empirically determined. Each melanocyte culture was washed with a 0.4 mM EDTA in PBS; treated with 1 ml of a mixture containing 0.13% trypsin and 0.2 mM EDTA; then incubated approximately 10 minutes at 37 C; followed by addition of 1 ml of PBS. Subsequently, a 0.5 ml aliquot of each resulting suspension was diluted to 10 ml total volume using isotonic saline and processed using a particle counter (Model ZM, Colter Science).
This experimental series was performed to evaluate the effect of a DAG on melanocytes derived from animal sources, rather than humans. In this experimental series, murine S91 melanoma cells were grown and maintained in culture using conventional techniques [Friedmann and Gilchrest, J. Cell. Physiol. 133:88-94 (1987)]. […]

human melanocytes [4] = experiment: Melanocyte bioassay: cell number / proliferation of cultured human melanocytes; format: cell-based
Procedure: as §3, §1, §2

human melanocytes [5] = experiment: Melanocyte bioassay: melanin content of cultured human melanocytes; format: cell-based; settings: for melanization / melanin content per human melanocyte (Fig. 3): DAG added after pretreatment with 100 nM TPA for 24 hours, then 6 days
Procedure: Melanocytes were seeded at 2 x 10^4 cells per 35 mm dish and combined with KPGM supplemented with 2% FBS and 100 ug/ml of BHE, now designated as complete melanocyte medium. After 24 hours incubation at 37 C, the grown melanocyte cultures, in duplicate or triplicate, received one of the following: free complete melanocyte medium; or supplemented whole KDCM. Each melanocyte culture was then incubated for 6-7 days at 37 C. Subsequently, each melanocyte culture was harvested and the cell number per dish empirically determined. Each melanocyte culture was washed with a 0.4 mM EDTA in PBS; treated with 1 ml of a mixture containing 0.13% trypsin and 0.2 mM EDTA; then incubated approximately 10 minutes at 37 C; followed by addition of 1 ml of PBS. Subsequently, a 0.5 ml aliquot of each resulting suspension was diluted to 10 ml total volume using isotonic saline and processed using a particle counter (Model ZM, Colter Science). To determine melanin content, the remaining suspension was centrifuged for 5 minutes in a microcentrifuge; the supernatant discarded; and the resulting cell pellet dissolved in 0.1 ml of a 1 M NaOH which was subsequently diluted with 0.4 ml of water. Melanin concentration was calculated by determination of optical density at 475 nanometers; and values extrapolated by comparison with a standard curve of determinations for synthetic melanin, a measurement of melanogenesis which correlates extremely well with 14C-DOPA incorporation and with tyrosinase activity [[…] and […]. Cell. Physiol. 133:88-94 (1987)]. Melanin values were expressed as total melanin per culture; or as melanin content per cell; or as percent of untreated controls. […] Neonatal foreskins obtained within two hours of elective circumcision were the source of human melanocytes. The epidermis was separated from the dermis after overnight incubation in 0.25% trypsin. Melanocytes were established in primary culture according to the procedure of […] et al. [J. Invest. Dermatol. 83:370-376 (1984)]. The preferred DAG was combined with human melanocytes in complete melanocyte medium and incubated together for a period of 6 days at 37°C. […] At an optimal concentration of 100 »M, this DAG produced an average of a 4 fold increase in cellular melanin content per cell over the untreated control. […] Initially, the human melanocytes were obtained and grown as previously described. Subsequently, the cultured human melanocytes were combined with 100 nM of TPA in melanocyte medium and incubated at 37°C for 24 hours. The DAG was then added and the culture incubated again for 6 days. The melanin content of the cells was then evaluated in accordance with the procedure as previously described herein. The results are graphically illustrated by Figs. 2 and 3 respectively.

[6] = DAG added after pretreatment with 100 nM TPA for 24 hours, then 6 days
[7] = agent alone (DAG 6 days; TPA 100 nM pretreatment)

## CCCCCCCC/C=C\CCCCCCCC(=O)OCC(CO)OC(C)=O (stereo not shown) [1-oleoyl-2-acetyl-glycerol]
S91 melanoma cells [1]; DAG
  melanin production in S91 melanoma cells in comparison to controls (Fig. 5): consistently failed to induce any substantial increases in melanin production
Human melanocytes [2]; [6]
  induction of dendricity: equally effective at melanization and the induction of dendricity
Human melanocytes [2]; DAG alone, 6 days at 37°C
  dendricity of human melanocytes: did not increase the dendricity
S91 melanoma cells [3]; concentrations ranging from 1-200 uM
  proliferation of S91 melanoma cells (Fig. 4): effectively failed to induce proliferation
Human melanocytes [4]; 25 - 200 »M, 6 days at 37°C
  melanocyte proliferation or growth (Figs. 1a and 1b): no meaningful effects on melanocyte proliferation or growth
Human melanocytes [4]; [6]
  human melanocyte proliferation (Fig. 2): neither the DAG analogue, nor the pretreatment with TPA, nor their combination has any substantial effect
Human melanocytes [4]; [7]
  human melanocyte proliferation (Fig. 2): neither the DAG analogue, nor the pretreatment with TPA, nor their combination has any substantial effect
Human melanocytes [5]; listed as DAG
  melanization / melanin content per human melanocyte (Fig. 3): major and significant increases in melanin content per human melanocyte as a function of TPA pretreatment in amounts meaningfully greater than that of the chosen DAG analogue alone
Human melanocytes [5]; listed as diacylglycerol
  melanization / melanin content per human melanocyte (Fig. 3): equally effective at melanization
Human melanocytes [5]; Homo sapiens, 144 h, optimal concentration of 100 »M, 6 days at 37°C in complete melanocyte medium, read-out: increase in cellular melanin content per cell over the untreated control
  fold induction at 100 µM: 4
Human melanocytes [5]; concentration levels 25 - 200 »M, 6 days at 37°C
  melanin content (Figs. 1a and 1b): clear dose dependent response to increased melanin content
Human melanocytes [5]; diacylglycerol alone, second experimental series, 6 days
  melanization: induced increased melanization

## CC(C)Cn1c(=O)n(C)c(=O)c2[nH]cnc21 [IBMX, 3-isobutyl-1-methylxanthine, reference compound]
S91 melanoma cells [1]; 100 »M
  melanin production in S91 melanoma cells (Fig. 5): caused a major increase in melanin production
S91 melanoma cells [3]; 100 »M
  proliferation / cellular growth of S91 melanoma cells (Fig. 4): failed to produce any cellular growth

## tetradecanoyl phorbol-13-acetate [TPA, reference compound]
Human melanocytes [2]; TPA alone, 100 nM
  dendricity: induced extreme dendricity
Human melanocytes [4]; [7]
  human melanocyte proliferation (Fig. 2): neither the DAG analogue, nor the pretreatment with TPA, nor their combination has any substantial effect
